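Values below derive from 48-hour exposures of cells grown in 96-well plates, with endpoints linearly interpolated between the two concentrations bracketing the appropriate inhibition level. Here, GI50 denotes the concentration required for 50% inhibition of growth.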 Active and inactive are the calls of the source. Rule as the data show it: active = GI50 up to about 1.1 µM and inactive = higher.
Assays:
Assay in all cases: NCI tumour cell line growth inhibition, 48 h
A498 = test system: A498
HCC 2998 = test system: HCC 2998
HOP-62 = test system: HOP-62
Hs-578T = test system: Hs-578T
K562 = test system: K562
Malme-3M = test system: Malme-3M
NCI-H226 = test system: NCI-H226
NCI-H522 = test system: NCI-H522
PC-3 = test system: PC-3
SF-268 = test system: SF-268
SF-295 = test system: SF-295
SK-MEL-2 = test system: SK-MEL-2
SK-MEL-5 = test system: SK-MEL-5
SN12C = test system: SN12C
SNB-75 = test system: SNB-75
SR = test system: SR
U-251 = test system: U-251
UACC-62 = test system: UACC-62
BT-549 = test system: BT-549

| SMILES | GI50 (A498) | GI50 (HCC 2998) | GI50 (HOP-62) | GI50 (Hs-578T) | GI50 (K562) | GI50 (Malme-3M) | GI50 (NCI-H226) | GI50 (NCI-H522) | GI50 (PC-3) | GI50 (SF-268) | GI50 (SF-295) | GI50 (SK-MEL-2) | GI50 (SK-MEL-5) | GI50 (SN12C) | GI50 (SNB-75) | GI50 (SR) | GI50 (U-251) | GI50 (UACC-62) | GI50 (BT-549) |
| --- | --- | --- | --- | --- | --- | --- | --- | --- | --- | --- | --- | --- | --- | --- | --- | --- | --- | --- | --- |
| Cc1ccc2c(c1C)C(=O)/C(=C/c1cccc(C)c1C(=O)O)C2 | > 45.1 µM (inactive) | 51.5 µM (inactive) | > 55.7 µM (inactive) | > 86.1 µM (inactive) | 72.8 µM (inactive) | 71 µM (inactive) | 43.1 µM (inactive) | 40.1 µM (inactive) | 57.5 µM (inactive) | > 91.4 µM (inactive) | > 100 µM (inactive) | > 83.6 µM (inactive) | 38.9 µM (inactive) | > 71.4 µM (inactive) | 69.3 µM (inactive) | > 60.5 µM (inactive) | 79.1 µM (inactive) | 56 µM (inactive) | – |
| CN1CCN(Cc2ccccc2)CC1CC#N (stereo not drawn) | > 100 µM (inactive) | > 100 µM (inactive) | > 100 µM (inactive) | – | > 100 µM (inactive) | > 100 µM (inactive) | > 100 µM (inactive) | – | – | > 100 µM (inactive) | > 100 µM (inactive) | – | > 100 µM (inactive) | > 100 µM (inactive) | > 100 µM (inactive) | > 100 µM (inactive) | > 100 µM (inactive) | > 100 µM (inactive) | > 100 µM (inactive) |
| Cc1oc2c(cc(O)c3ccccc32)c2cccc1-2 | > 100 µM (inactive) | > 100 µM (inactive) | > 100 µM (inactive) | > 100 µM (inactive) | – | > 100 µM (inactive) | – | – | > 100 µM (inactive) | > 100 µM (inactive) | > 100 µM (inactive) | – | > 100 µM (inactive) | > 100 µM (inactive) | > 100 µM (inactive) | > 100 µM (inactive) | > 100 µM (inactive) | – | – |
| COC(=O)C1=C2SCc3cccc(c3)CSC3=C(C(=O)OC)SC(=C(S2)S1)S3 | > 100 µM (inactive) | > 100 µM (inactive) | > 100 µM (inactive) | – | > 100 µM (inactive) | – | > 100 µM (inactive) | – | 35.5 µM (inactive) | – | > 100 µM (inactive) | 32.7 µM (inactive) | > 100 µM (inactive) | 65.9 µM (inactive) | > 100 µM (inactive) | – | 40.2 µM (inactive) | > 100 µM (inactive) | – |
| COc1ccc(/C=C2\CN(C)C/C(=C\c3ccc(OC)c(OC)c3OC)C2=O)c(OC)c1OC | 0.146 µM (active) | 0.171 µM (active) | 0.294 µM (active) | 0.303 µM (active) | 0.0192 µM (active) | 0.171 µM (active) | 0.394 µM (active) | 0.184 µM (active) | 0.231 µM (active) | 0.164 µM (active) | 0.272 µM (active) | 0.363 µM (active) | 0.259 µM (active) | 0.101 µM (active) | 0.973 µM (active) | 0.0658 µM (active) | 0.0333 µM (active) | 0.2 µM (active) | – |
| CC(C)[C@@H]1CC[C@@H](C)C[C@H]1OC(=O)/C=C1\C(C(=O)O[C@@H]2C[C@H](C)CC[C@H]2C(C)C)[C@H]2C=C[C@@H]1O2 (stereo partly drawn) | > 100 µM (inactive) | 29.1 µM (inactive) | > 100 µM (inactive) | 72.3 µM (inactive) | 33.4 µM (inactive) | > 100 µM (inactive) | 38.3 µM (inactive) | 22.5 µM (inactive) | 37.3 µM (inactive) | 76.4 µM (inactive) | 25.2 µM (inactive) | – | 40.4 µM (inactive) | 57.8 µM (inactive) | > 100 µM (inactive) | 43 µM (inactive) | 51.4 µM (inactive) | 92.5 µM (inactive) | – |
| COC(=O)[C@H](C)N1C(=O)N[C@@H](C(C)C)C1=O | – | > 100 µM (inactive) | > 100 µM (inactive) | – | > 100 µM (inactive) | > 100 µM (inactive) | > 100 µM (inactive) | > 100 µM (inactive) | > 100 µM (inactive) | – | > 100 µM (inactive) | > 100 µM (inactive) | > 100 µM (inactive) | > 100 µM (inactive) | 82 µM (inactive) | > 100 µM (inactive) | > 100 µM (inactive) | > 100 µM (inactive) | > 100 µM (inactive) |
| CC1CCN(C(C)C)P(=S)(Cc2ccccc2)O1 (stereo not drawn) | – | 83.9 µM (inactive) | > 100 µM (inactive) | – | 70.1 µM (inactive) | > 100 µM (inactive) | > 100 µM (inactive) | – | 55 µM (inactive) | > 100 µM (inactive) | 34 µM (inactive) | 44.3 µM (inactive) | > 100 µM (inactive) | – | – | > 100 µM (inactive) | > 100 µM (inactive) | 16.7 µM (inactive) | 28.1 µM (inactive) |
| Cc1cc2[nH]c3c(C#N)c(-c4ccccc4)c(/C=N/c4ccc(F)cc4)c(=O)n3c2cc1C | > 100 µM (inactive) | > 100 µM (inactive) | > 100 µM (inactive) | – | – | 76 µM (inactive) | 69.7 µM (inactive) | 45.5 µM (inactive) | > 100 µM (inactive) | 99.5 µM (inactive) | 64.6 µM (inactive) | > 100 µM (inactive) | > 100 µM (inactive) | > 100 µM (inactive) | > 100 µM (inactive) | – | > 100 µM (inactive) | – | > 100 µM (inactive) |
| CCOc1ccc(NC(=O)C(=O)CC(=O)C2=C(C)Nc3ccccc3S2)cc1 | > 50 µM (inactive) | > 50 µM (inactive) | > 50 µM (inactive) | – | > 50 µM (inactive) | > 50 µM (inactive) | > 50 µM (inactive) | > 50 µM (inactive) | – | > 50 µM (inactive) | > 50 µM (inactive) | > 50 µM (inactive) | > 50 µM (inactive) | > 50 µM (inactive) | – | – | > 50 µM (inactive) | > 50 µM (inactive) | – |
| CC1=CCS(=O)(=O)C1C(O)C1=C(C)CCCC1(C)C (stereo not drawn) | 0.0395 µM (active) | > 100 µM (inactive) | > 100 µM (inactive) | – | 43.1 µM (inactive) | 60 µM (inactive) | > 100 µM (inactive) | 58.6 µM (inactive) | 55.5 µM (inactive) | – | 22.2 µM (inactive) | > 100 µM (inactive) | 44.4 µM (inactive) | > 100 µM (inactive) | 98.4 µM (inactive) | – | 56.8 µM (inactive) | 87.1 µM (inactive) | – |
| CC(C)N1[C@@H]2CCCC[C@H]2N(C(C)C)[PH]1=O | > 100 µM (inactive) | > 100 µM (inactive) | > 100 µM (inactive) | > 100 µM (inactive) | > 100 µM (inactive) | – | > 100 µM (inactive) | > 100 µM (inactive) | – | > 100 µM (inactive) | > 100 µM (inactive) | – | > 100 µM (inactive) | > 100 µM (inactive) | > 100 µM (inactive) | > 100 µM (inactive) | – | > 100 µM (inactive) | – |
| CC(=O)OC1CC[C@]2(C)C3CC[C@@]4(C)C(CCC4[C@H](C)CCCC(C)C)[C@@H]3CCC2(Br)C1 (stereo partly drawn) | 8.13 µM (inactive) | > 50 µM (inactive) | > 50 µM (inactive) | 10.1 µM (inactive) | 15.5 µM (inactive) | 10.9 µM (inactive) | > 50 µM (inactive) | 10.3 µM (inactive) | 10.9 µM (inactive) | 11.7 µM (inactive) | 34.8 µM (inactive) | – | – | 22.5 µM (inactive) | > 50 µM (inactive) | 9.44 µM (inactive) | 17.9 µM (inactive) | 21 µM (inactive) | – |
